Assay [1] has as its target T1, CDK12/Cyclin K (Homo sapiens) (UniProt O75909+Q9NYV4). Kind of assay: Inhibition of BODIPY-FL-labeled AT-7519 binding to human His-tagged CDK12/CycK assessed as BODIPY-FL-labeled AT-7519 binding by measuring fluorescence intensity at 1 uM incubated for 120 mins in presence of 3 uM BODIPY-FL-labeled AT-7519 by TR-FRET assay relative to control. Format: protein-complex assay. On the technique in general: In TR-FRET formats the signal depends on donor and acceptor labels being close together.

Assay [2] addresses T1, CDK12/Cyclin K (Homo sapiens). Kind of assay: Inhibition of BODIPY-FL-labeled AT-7519 binding to human His-tagged CDK12/CycK assessed as BODIPY-FL-labeled AT-7519 binding by measuring fluorescence intensity at 1 uM incubated for 120 mins in presence of 30 uM BODIPY-FL-labeled AT-7519 by TR-FRET assay relative to control. Format: protein-complex assay.
The test system of the next assay is A2780. Kind of assay: Antiproliferative activity against human A2780 cells at 1 uM by CellTiter-Glo reagent assay relative to control. The format is functional. In general terms: ATP-based viability assays read luminescence as a measure of living cells.
For assay [3], the target named is T1, CDK12/Cyclin K (Homo sapiens). Kind of assay: Inhibition of human CDK12/CycK in human A2780 cells assessed as intracellular phosphorylated CTD Ser2 art 1 uM by In-Cell Western method relative to control. Format: cell-based.
For assay [4] the target is unchanged. Kind of assay: Inhibition of human His-tagged CDK12/CycK using ULight-labeled eIF4E-binding protein 1 substrate at 1 uM incubated for 60 mins by fluorescence based assay relative to control. Format: protein-complex assay.

T1 sequence (O75909 whole entry, looked up): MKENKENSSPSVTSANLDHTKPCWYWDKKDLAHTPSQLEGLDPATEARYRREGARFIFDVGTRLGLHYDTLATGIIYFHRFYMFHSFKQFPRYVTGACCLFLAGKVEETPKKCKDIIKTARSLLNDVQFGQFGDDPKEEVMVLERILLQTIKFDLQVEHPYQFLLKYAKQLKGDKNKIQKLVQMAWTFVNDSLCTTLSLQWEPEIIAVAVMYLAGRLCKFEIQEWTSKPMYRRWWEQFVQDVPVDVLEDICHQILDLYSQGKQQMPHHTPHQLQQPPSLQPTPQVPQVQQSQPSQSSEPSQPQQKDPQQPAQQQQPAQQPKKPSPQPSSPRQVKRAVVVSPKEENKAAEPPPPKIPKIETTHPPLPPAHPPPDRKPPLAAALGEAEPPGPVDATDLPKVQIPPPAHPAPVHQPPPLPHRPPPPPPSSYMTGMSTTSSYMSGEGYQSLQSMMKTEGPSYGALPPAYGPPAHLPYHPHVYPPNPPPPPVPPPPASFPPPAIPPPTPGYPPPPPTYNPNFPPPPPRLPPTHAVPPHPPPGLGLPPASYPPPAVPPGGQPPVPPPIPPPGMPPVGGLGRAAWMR
T1 sequence (Q9NYV4 whole entry, looked up): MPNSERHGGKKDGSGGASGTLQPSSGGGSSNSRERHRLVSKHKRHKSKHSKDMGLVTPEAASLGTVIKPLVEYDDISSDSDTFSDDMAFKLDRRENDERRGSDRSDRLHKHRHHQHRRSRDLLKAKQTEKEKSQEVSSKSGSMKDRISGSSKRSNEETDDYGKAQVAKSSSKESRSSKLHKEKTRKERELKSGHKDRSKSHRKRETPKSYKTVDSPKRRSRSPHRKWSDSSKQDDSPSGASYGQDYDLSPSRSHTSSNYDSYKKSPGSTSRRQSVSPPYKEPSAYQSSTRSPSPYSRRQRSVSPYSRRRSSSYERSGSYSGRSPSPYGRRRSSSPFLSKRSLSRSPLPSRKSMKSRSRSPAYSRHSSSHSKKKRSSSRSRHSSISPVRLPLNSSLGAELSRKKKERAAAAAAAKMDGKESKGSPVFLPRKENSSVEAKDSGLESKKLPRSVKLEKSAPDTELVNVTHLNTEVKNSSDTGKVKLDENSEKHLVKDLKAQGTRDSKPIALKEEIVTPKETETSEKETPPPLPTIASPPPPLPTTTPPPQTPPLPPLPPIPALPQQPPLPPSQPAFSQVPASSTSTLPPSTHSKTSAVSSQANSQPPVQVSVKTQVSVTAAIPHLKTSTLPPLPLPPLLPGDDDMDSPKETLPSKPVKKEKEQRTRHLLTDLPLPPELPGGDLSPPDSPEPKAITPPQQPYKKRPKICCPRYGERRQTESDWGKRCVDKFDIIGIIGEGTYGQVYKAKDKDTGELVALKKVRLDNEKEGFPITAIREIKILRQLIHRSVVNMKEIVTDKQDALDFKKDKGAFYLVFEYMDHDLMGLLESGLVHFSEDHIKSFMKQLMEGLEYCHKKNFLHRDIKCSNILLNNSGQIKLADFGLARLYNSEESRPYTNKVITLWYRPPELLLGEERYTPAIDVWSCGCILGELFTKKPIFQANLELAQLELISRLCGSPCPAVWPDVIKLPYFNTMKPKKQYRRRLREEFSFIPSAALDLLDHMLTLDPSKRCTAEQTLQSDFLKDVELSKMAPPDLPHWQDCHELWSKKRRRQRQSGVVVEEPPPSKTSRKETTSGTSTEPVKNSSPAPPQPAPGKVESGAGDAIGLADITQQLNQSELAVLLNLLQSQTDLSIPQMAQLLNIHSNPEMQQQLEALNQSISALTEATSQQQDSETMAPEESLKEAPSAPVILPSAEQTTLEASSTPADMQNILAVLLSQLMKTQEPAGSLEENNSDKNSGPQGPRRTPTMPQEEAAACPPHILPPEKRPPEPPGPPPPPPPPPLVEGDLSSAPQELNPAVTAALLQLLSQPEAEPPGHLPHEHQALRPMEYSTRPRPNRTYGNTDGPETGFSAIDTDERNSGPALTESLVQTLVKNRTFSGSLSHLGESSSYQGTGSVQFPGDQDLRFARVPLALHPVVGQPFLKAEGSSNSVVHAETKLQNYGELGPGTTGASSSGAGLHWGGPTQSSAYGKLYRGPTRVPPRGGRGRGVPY

In general, inhibition refers to the relative decrease from the control value, in per cent. Turning to `COc1ncc(-c2cnc(N(C(=O)NCc3ccccc3)[C@H]3CC[C@H](Nc4ncc(C(F)(F)F)c(N5CC(C)(O)C5)n4)CC3)cn2)cn1`, the inhibition in assay [1] came out at 103%.

Consider `CCCC(=O)N(c1cnc(-c2cnn(C)c2)cn1)[C@H]1CC[C@H](Nc2ncc(C(F)(F)F)c(-c3cncc(S(N)(=O)=O)c3)n2)CC1`, for which the inhibition in assay [2] was 99%.

On to `COCCNC(=O)N(c1cnc(-c2cnc(OC)nc2)cn1)[C@H]1CC[C@H](Nc2ncc(C(F)(F)F)c(-c3ccn(C(F)F)n3)n2)CC1`, for which the inhibition in assay [2] came to 90%.

Regarding `COCCOC(=O)N(c1cnc(-c2cnc(OC)nc2)cn1)[C@H]1CC[C@H](Nc2ncc(C(F)(F)F)c(-c3cncc(S(N)(=O)=O)c3)n2)CC1`, the inhibition in assay [2] was found to be 91%.

As to `COc1ncc(-c2ccc(N(C(=O)COc3ccccc3)[C@H]3CC[C@H](Nc4ncc(C#N)c(OC5COC5)n4)CC3)nc2)cn1`, the inhibition in assay [1] was 98%.

As to `COc1ncc(-c2cnc(N(C(=O)OCCN3CCOCC3)[C@H]3CC[C@H](Nc4ncc(C(F)(F)F)c(-c5cncc(S(N)(=O)=O)c5)n4)CC3)cn2)cn1`, the inhibition in assay [2] was determined as 99%.

For the compound `COc1ncc(-c2cnc(N(C(=O)COc3ccccc3)[C@H]3CC[C@H](Nc4ncc(C(F)(F)F)c(N5CC(C)(O)C5)n4)CC3)cn2)cn1`, in assay [1], the inhibition turned out to be 100%.

For the compound `COCC(=O)N(c1cnc(-c2cnn(C)c2)cn1)[C@H]1CC[C@H](Nc2ncc(C(F)(F)F)c(-c3cncc(S(N)(=O)=O)c3)n2)CC1`, the inhibition in assay [2] came to 95%.

As for `COc1ncc(-c2cnc(N(C(=O)NCc3ccccc3)[C@H]3CC[C@H](Nc4ncc(C#N)c(N5CC(C)(O)C5)n4)CC3)nc2)cn1`, the inhibition at 1 µM in the assay on A2780 is 94%. The inhibition was determined as 95% in assay [1], 54% in assay [3] and 105% in assay [4].

Take `COc1ncc(-c2cnc(N(C(=O)NCc3ccccc3)[C@H]3CC[C@H](Nc4ncc(C(F)(F)F)c(NC5COC5)n4)CC3)nc2)cn1`: the inhibition in assay [1] came to 96%.

Turning to `COc1ncc(-c2cnc(N(C(=O)NCc3ccccc3)[C@H]3CC[C@H](Nc4ncc(C#N)c(N5CCCC(O)CC5)n4)CC3)nc2)cn1` (some centres undefined), the inhibition in assay [3] was 48%.

With `COc1ncc(-c2cnc(N(C(=O)NCc3ccccn3)[C@H]3CC[C@H](Nc4ncc(C(F)(F)F)c(OC5COC5)n4)CC3)nc2)cn1`, the inhibition at 1 µM with A2780 is 98%. For the same compound, the results for the inhibition in assay [1] and in assay [4] were 103% and 99%, respectively.

Regarding `COc1ncc(-c2ccc(N(C(=O)COc3ccccc3)[C@H]3CC[C@H](Nc4ncc(C#N)c(N5CCCC(O)CC5)n4)CC3)nc2)cn1` (some centres undefined), the inhibition in assay [1] stood at 104%.

For `Cn1cc(-c2ccc(N(C(=O)NCc3ccccc3)[C@H]3CC[C@H](Nc4ncc(C#N)c(-c5[nH]ncc5O)n4)CC3)nc2)cn1`, the inhibition in assay [1] turned out to be 96%.

Values taken from ChEMBL document CHEMBL4806964, “Heterocyclic compound” (2019).
